Legend:
[1] = target: T1, V-ATPase (Bos taurus, UniProt P31404); test: ATP-dependent proton transport by V-ATPase (acridine orange / oxonol-V fluorescence quenching); type: biochemical, bovine
T1 construct: from tissue; host or cells: bovine adrenal medulla chromaffin granule membranes
Description: Chromaffin granule membranes were prepared from adrenal glands collected from slaughtered cattle according to Reference A (Nathan Nelson et al., 1988, Chromaffin Granule Proton Pump, Methods in Enzymology, 157, 619-633). Chromaffin granule membranes prepared by sucrose density gradient centrifugation were suspended in 2 ml of SME buffer (20 mM MOPS-tris (pH 7.0), 0.3 M sucrose, 5 mM EDTA, 10 µg/ml leupeptin, and 10 µg/ml pepstatin) + 25% glycerol, and the resulting suspension was aliquoted and stored at -80°C. Under these conditions, the ATP transport activity, the V-ATPase activity, and the catecholamine transport activity remain fully active for at least one year.
ATP-dependent proton transport by V-ATPase was measured according to Reference B. Proton transport activity was measured using a spectrofluorometer at excitation wavelength of 492 nm and a fluorescence wavelength 540 nm, wherein fluorescence quenching of acridine orange was used as an index (N = 2). The transmembrane potential generated was measured using a spectrofluorometer at an excitation wavelength of 580 nm and a fluorescence wavelength of 630 nm, wherein fluorescence quenching of oxonol-V was used as an index (N = 2). The acridine measurement liquid (2 ml) contained 20 mM MOPS-tris (pH 7.0), 0.2 M sucrose, 0.1 M potassium chloride, 5 mM magnesium acetate, 0.2 µg valinomycin, 2 µM acridine orange, and about 20 µg of chromaffin granules. The oxonol-V measurement liquid (2 ml) contained 20 mM MOPS-tris (pH 7.0), 0.3 M sucrose, 5 mM magnesium acetate, 5 µM oxonol-V, and about 20 µg of chromaffin granules.
Chromaffin granule membrane vesicles were prepared in the same manner as in Example 5, and uptake of radiolabeled ATP into the vesicles was measured. Transport activity of catecholamine (dopamine) and ATP-dependent proton transport by V-ATPase were also measured in the same manner as in Example 5.

[2] = tested on: Thioacetamide-induced hepatic fibrosis; test: Thioacetamide-induced hepatic fibrosis in mice; type: in vivo
Description: Wild-type mice, […] (manufactured by Charles River Japan), were housed on a 12-hour light/dark cycle and fed a standard solid diet (5.4% fat, CRF-1, manufactured by Oriental Yeast Co., Ltd.) ad libitum. Thioacetamide (TAA, manufactured by FUJIFILM Wako Pure Chemical Corporation) was dissolved in physiological saline at 0.9% w/v. Eight-week-old mice were randomly assigned to three groups and continuously treated for 9 weeks according to the following scheme. At Week 9, all mice were euthanized 1 hour after administration of physiological saline or IMG.
Normal control group (N = 6): Physiological saline was intraperitoneally administered to mice three times per week. Eight hours after each administration, a vehicle was orally administered to the mice.
TAA group (N = 6): TAA(50 mg/kg, intraperitoneal) was administered to mice. Eight hours thereafter, physiological saline was orally administered to the mice. This treatment was performed three times per week for a total of 9 weeks.
TAA + IMG group (N = 6): During the first week, physiological saline was orally administered to mice. Thereafter, imeglimin (IMG) at 200 mg/kg was orally administered three times per week for 8 weeks. The administration of IMG was performed 8 hours after intraperitoneal administration of TAA (50 mg/kg).
For immunohistochemical analysis, liver samples were fixed in 4% paraformaldehyde, embedded in paraffin, and then sectioned. The sections were stained with HE or PSR. In addition, the paraffin-embedded sections were subjected to immunostaining using an α-SMA monoclonal antibody (1:500, catalog No. A5228, manufactured by Sigma-Aldrich) and an F4/80 monoclonal antibody (1:200, catalog No. MCA497GA, manufactured by AbD Serotec). The cell specimens were observed using a microscope (BZ-X700 series, manufactured by Keyence) or a confocal laser microscope (FV1000, manufactured by Olympus Corporation). The number of F4/80-positive cells was counted in four high-power fields per section. The α-SMA-positive area and the PSR-positive area were quantified using the image analysis software Fiji-ImageJ (1.54f).
A histological score was determined by a blinded investigator using the NAFLD histological scoring system of the Nonalcoholic Steatohepatitis Clinical Research Network. The total NAFLD activity score (NAS) was calculated from the total of the individual scores for steatosis ([…]), lobular inflammation (F4/80), and hepatocyte ballooning. The range of each parameter was 0 to 2 (ballooning) or 3 (the other two scores), where 0 indicates normal and 2 or 3 indicates severe. Staging of fibrosis was based on the NASH fibrosis stages, and a fibrosis stage ranging from 0 to 4 was determined according to Reference H (David E. Kleiner et al., 2005, Design and validation of a histological scoring system for nonalcoholic fatty liver disease, Hepatology, 41, 1313-1321).
All results are expressed as the mean ± standard error of the mean (S.E.M.). Statistical analyses were performed using GraphPad Prism 7.0 (GraphPad Software). Significance upon comparison between two groups was evaluated by an unpaired two-tailed Student's t-test. An unpaired two-tailed Student's t-test was used. Statistical significance among three or more groups was determined by two-way analysis of variance (ANOVA) with Tukey's or Dunnett's post hoc test. Coloc2 was used to perform image analysis, automatic thresholding, and pixel intensity correlation for statistical processing. Statistical significance was assumed when the P value was < 0.05.
In accordance with Example 15, immunostaining of α-SMA in liver sections and observation by fluorescence microscopy were performed for the normal control group, the TAA group, and the TAA + IMG group, and for a TAA + Clo group, which was treated in the same manner as the TAA + IMG group except that clodronate, instead of imeglimin, was administered at 30 mg/kg by blending it in the drinking water from 1 week after the start of TAA administration. […]

[3] = tested on: human epidermal keratinocytes; test: LPS-stimulated ATP secretion in keratinocytes; type: cell-based; conditions: 18 hours incubation, LPS 10 µg/ml 10 minutes, N = 8
Description: Keratinocytes were cultured in the same manner as in Example 1. Keratinocytes were cultured at 2.5 × 10^4 cells/well in a 24-well plate at 37°C in 5% CO2 for 4 days. The medium was replaced with a test solution (Hanks' balanced salt solution (HBSS) (manufactured by Gibco) supplemented with imeglimin, metformin, or clodronate), and then incubation was performed at 37°C in 5% CO2 for 18 hours. Thereafter, LPS (10 µg/ml) was added thereto, and incubation was further carried out for 10 minutes, followed by collection of 200 µl of the supernatant. The supernatant was immediately treated on a heat block at 95°C for 10 minutes, and ATP in the supernatant was quantified using an ATP Assay Kit - Luminescence (manufactured by Dojindo) (N = 8).

[4] = imeglimin 200 mg/kg orally three times per week for 8 weeks

T1 sequence (P31404 whole entry, looked up): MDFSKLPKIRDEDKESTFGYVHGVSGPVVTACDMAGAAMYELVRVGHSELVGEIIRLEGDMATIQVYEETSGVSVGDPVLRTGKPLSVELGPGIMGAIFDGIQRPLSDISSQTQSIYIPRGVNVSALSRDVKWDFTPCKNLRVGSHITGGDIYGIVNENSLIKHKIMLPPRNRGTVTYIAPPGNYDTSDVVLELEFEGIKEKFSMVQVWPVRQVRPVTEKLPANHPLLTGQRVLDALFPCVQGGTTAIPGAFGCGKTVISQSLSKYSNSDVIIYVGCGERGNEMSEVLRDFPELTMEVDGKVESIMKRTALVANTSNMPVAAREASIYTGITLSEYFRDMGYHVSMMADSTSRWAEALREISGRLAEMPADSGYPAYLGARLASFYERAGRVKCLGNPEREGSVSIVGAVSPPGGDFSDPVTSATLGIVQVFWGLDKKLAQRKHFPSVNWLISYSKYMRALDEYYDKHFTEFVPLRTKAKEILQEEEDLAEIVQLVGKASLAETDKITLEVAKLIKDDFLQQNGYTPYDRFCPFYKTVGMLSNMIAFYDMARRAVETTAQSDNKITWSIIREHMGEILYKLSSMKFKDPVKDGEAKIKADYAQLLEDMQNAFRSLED

| SMILES | quenching of oxonol-V fluorescence (transmembrane potential) ([1]; addition of 5 mM PEP, ATP alone quenched by 40%, N = 2) | quenching of acridine orange fluorescence (proton transport) ([1]; addition of 5 mM PEP, ATP alone quenched by 62%, N = 2) | inhibition of V-ATPase ([1]; concentrations of up to 5 mM, data not shown) | α-SMA-positive reaction in liver, increase by TAA ([2]; clodronate 30 mg/kg in the drinking water, immunostaining) | α-SMA-positive area fraction ([2]; clodronate 30 mg/kg in the drinking water, normal control 0.14 ± 0.01, TAA group 2.79 ± 0.33, four measurements per group) | ATP secretion upon LPS stimulation ([3]; 10 µM) | α-SMA in liver sections (immunostaining and fluorescence microscopy) ([2]; imeglimin 200 mg/kg orally) | α-SMA-positive reaction by Western blotting of liver tissue, increase due to TAA ([2]; imeglimin 200 mg/kg orally) | fibrosis score, increase by TAA [2, 4] | liver histology (HE staining) [2, 4] | positive reaction of F4/80-positive macrophages, increase by TAA [2, 4] | α-SMA-positive reaction (activation of hepatic stellate cells), increase by TAA [2, 4] | PSR staining-positive area (collagen fibers) ([2]; imeglimin 200 mg/kg orally three times per week for 8 weeks, versus TAA group) | ATP secretion upon LPS stimulation ([3]; 1 µM) |
| --- | --- | --- | --- | --- | --- | --- | --- | --- | --- | --- | --- | --- | --- | --- |
| C=C(OP(=O)(O)O)C(=O)O [PEP, phosphoenolpyruvic acid] | did not change the level of quenching | did not change the level of quenching | did not inhibit |  |  |  |  |  |  |  |  |  |  |  |
| O=P(O)(O)C(Cl)(Cl)P(=O)(O)O [clodronate] |  |  |  | markedly suppressed | 0.71 ± 0.10 | almost completely inhibited |  |  |  |  |  |  |  |  |
| C[C@H]1N=C(N(C)C)N=C(N)N1 [imeglimin] |  |  |  |  |  | almost completely inhibited | effect similar to that of clodronate | markedly suppressed | suppressed | reduced destruction of the lobular structure, hepatocyte ballooning, and inflammatory cell infiltration | strongly suppressed | strongly suppressed | significantly reduced | almost completely inhibited |
